Data published in PubChem BioAssay (NCI).
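Interpolation was linear, between the two tested concentrations surrounding the appropriate level; five concentrations were tested over 48 hours in 96-well plates. TGI is the concentration that stops growth completely.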

How the values were obtained:
Assay in all cases: NCI anticancer screen, dose series, 48 h
[1] = test system: UO-31 renal
[2] = test system: MCF7 breast
[3] = test system: K-562 leukemia
[4] = test system: DU-145 prostate
[5] = test system: MOLT-4 leukemia
[6] = test system: TK-10 renal
[7] = test system: NCI-H460 lung
[8] = test system: SF-268 CNS
[9] = test system: U251 CNS
[10] = test system: UACC-62 melanoma
[11] = test system: OVCAR-4 ovarian
[12] = test system: UACC-257 melanoma
[13] = test system: KM12 colon
[14] = test system: NCI-H522 lung
[15] = test system: HOP-62 NSCLC
[16] = test system: HOP-92 NSCLC
[17] = test system: BT-549 breast

COc1cc(CNc2nc3ccccc3n2Cc2ccccc2)cc(CN2CCOCC2)c1O
TGI [1]: 52.5 µM | TGI [2]: 79.5 µM | TGI [3]: 53.1 µM | TGI [4]: > 100 µM | TGI [5]: > 100 µM | TGI [6]: 65.9 µM | TGI [7]: > 100 µM | TGI [8]: > 100 µM | TGI [9]: 93.1 µM | TGI [10]: 45.2 µM | TGI [11]: > 100 µM | TGI [12]: 39.9 µM | TGI [13]: > 100 µM | TGI [14]: 78.2 µM | TGI [15]: 65.2 µM | TGI [16]: 56.3 µM

Nc1ccc(C(=O)NN2C(=O)C(Cl)C2c2cc(Br)cc(Br)c2O)cc1 (stereo unspecified)
TGI [1]: 22.4 µM | TGI [5]: > 100 µM | TGI [6]: > 100 µM | TGI [7]: > 100 µM | TGI [8]: 41.6 µM | TGI [9]: > 100 µM | TGI [10]: 24.8 µM | TGI [11]: > 100 µM | TGI [12]: 85.9 µM | TGI [13]: > 100 µM | TGI [14]: > 100 µM | TGI [15]: > 100 µM | TGI [16]: > 100 µM

O=[N+]([O-])c1cc2c(cc1O)[nH]c1cccc([N+](=O)[O-])c12
TGI [1]: > 100 µM | TGI [3]: > 100 µM | TGI [5]: > 100 µM | TGI [6]: > 100 µM | TGI [7]: > 100 µM | TGI [8]: > 100 µM | TGI [11]: > 100 µM | TGI [12]: > 100 µM | TGI [13]: > 100 µM | TGI [14]: > 100 µM | TGI [15]: > 100 µM

COc1cc(C(C#N)NNC(=O)Cc2ccccc2)cc(OC)c1OC (stereo unspecified)
TGI [1]: > 100 µM | TGI [3]: > 100 µM | TGI [5]: > 100 µM | TGI [6]: > 100 µM | TGI [7]: > 100 µM | TGI [8]: > 100 µM | TGI [9]: > 100 µM | TGI [10]: > 100 µM | TGI [11]: > 100 µM | TGI [12]: > 100 µM | TGI [13]: > 100 µM | TGI [14]: > 100 µM | TGI [15]: > 100 µM | TGI [16]: > 100 µM

CC(C)(C)OC(=O)NNC(=O)C1Cc2ccccc2OC1=O (stereo unspecified)
TGI [1]: > 100 µM | TGI [3]: > 100 µM | TGI [4]: > 100 µM | TGI [5]: > 100 µM | TGI [6]: > 100 µM | TGI [7]: > 100 µM | TGI [8]: > 100 µM | TGI [9]: > 100 µM | TGI [10]: > 100 µM | TGI [12]: > 100 µM | TGI [17]: > 100 µM | TGI [13]: > 100 µM | TGI [14]: > 100 µM | TGI [15]: > 100 µM

CC(NC1=NCCO1)c1cccs1 (stereo unspecified)
TGI [1]: 92.8 µM | TGI [2]: 55.9 µM | TGI [3]: 59.6 µM | TGI [4]: > 100 µM | TGI [5]: > 100 µM | TGI [6]: > 100 µM | TGI [7]: > 100 µM | TGI [8]: 69.9 µM | TGI [9]: 39.6 µM | TGI [10]: 37.3 µM | TGI [11]: > 100 µM | TGI [12]: 37.9 µM | TGI [13]: 31.7 µM | TGI [15]: 66.5 µM | TGI [16]: 47 µM

NC(N)=NCc1ccc2c(c1)OCO2
TGI [1]: > 100 µM | TGI [3]: > 100 µM | TGI [4]: > 100 µM | TGI [5]: > 100 µM | TGI [6]: > 100 µM | TGI [7]: > 100 µM | TGI [8]: > 100 µM | TGI [9]: > 100 µM | TGI [10]: > 100 µM | TGI [11]: > 100 µM | TGI [13]: > 100 µM | TGI [14]: > 100 µM | TGI [15]: > 100 µM | TGI [16]: > 100 µM

CC(OC1CC(=O)CC2C(=O)C=CC(=O)C12)c1ccccc1 (stereo unspecified)
TGI [1]: 29.5 µM | TGI [3]: > 100 µM | TGI [5]: > 49.2 µM | TGI [6]: 31.6 µM | TGI [7]: > 59.4 µM | TGI [8]: 40.9 µM | TGI [9]: 27.9 µM | TGI [10]: 29.7 µM | TGI [11]: 32.4 µM | TGI [12]: 35.4 µM | TGI [13]: 32.4 µM | TGI [14]: 2.98 µM | TGI [15]: > 58.8 µM | TGI [16]: 2.97 µM
